Source: ChEMBL document CHEMBL4673229, “Pancreatic Lipase Inhibitory Cyclohexapeptides from the Marine Sponge-Derived Fungus Aspergillus sp. 151304” (J Nat Prod, 2020)
Positions of bridges follow the written chain, without caps; N, C: chain ends. Non-standard residues stand in square brackets, D forms with d. Residues, ends and D or L forms follow the SMILES beside them. *: point of attachment. NMeY = CN[C@@H](Cc1ccc(O)cc1)C(=O)O; Propionyl = CCC(=O)*

Key:
[1] = test system: HeLa; assay: Cytotoxicity against human HeLa cells assessed as reduction in cell viability incubated for 72 hrs by CCK8 assay; format: cell-based
[2] = test system: MCF7; assay: Cytotoxicity against human MCF7 cells assessed as reduction in cell viability incubated for 72 hrs by CCK8 assay; format: cell-based; details: MCF7, 72 h
[3] = Non-competitive inhibition of porcine pancrease lipase type 2 assessed as decrease in 4-MU formation using 4-MUO as substrate preincubated for 3 mins followed by substrate addition and measured for 40 mins by Lineweaver-Burk plot analysis; design: species or system Sus scrofa domesticus, Pancreas
[4] = Inhibition of porcine pancrease lipase type 2 assessed as decrease in 4-MU formation using 4-MUO as substrate preincubated for 3 mins followed by substrate addition and measured for 40 mins by fluorescence assay; design: species or system Sus scrofa domesticus, Pancreas
[5] = test system: HepG2; assay: Cytotoxicity against human HepG2 cells assessed as reduction in cell viability incubated for 72 hrs by CCK8 assay; format: cell-based; details: HepG2, 72 h
[6] = test system: PC-9; assay: Cytotoxicity against human PC-9 cells assessed as reduction in cell viability incubated for 72 hrs by CCK8 assay; format: cell-based; details: PC-9, 72 h

Ki [3] [µM]	IC50 [4] [µM]	SMILES	IC50 [1] [µM]	IC50 [2] [µM]	IC50 [5] [µM]	IC50 [6] [µM]
2	0.5	CC(=O)N[C@@H]1C(=O)N[C@@H](C(C)C)C(=O)N2CCC[C@H]2C(=O)N[C@H](C(C)C)C(=O)N[C@@H](Cc2ccc(O)cc2)C(=O)N[C@@H](Cc2ccc(O)cc2)C(=O)O[C@@H]1C	> 20	> 20	> 20	> 20
–	7.6	CC(=O)N[C@@H]1C(=O)N[C@@H](C(C)C)C(=O)N2CCC[C@H]2C(=O)N[C@@H](C(C)C)C(=O)N(C)[C@@H](Cc2ccc(O)cc2)C(=O)N[C@@H](Cc2ccc(O)cc2)C(=O)O[C@@H]1C (Ac-TVPV[NMeY]Y; ester 1-C)	> 20	> 20	> 20	> 20
–	1.8	CCC(=O)N[C@@H]1C(=O)N[C@@H](C(C)C)C(=O)N2CCC[C@H]2C(=O)N[C@@H](C(C)C)C(=O)N(C)[C@@H](Cc2ccc(O)cc2)C(=O)N[C@@H](Cc2ccc(O)cc2)C(=O)O[C@@H]1C (Propionyl-TVPV[NMeY]Y; ester 1-C)	> 20	> 20	> 20	> 20
